pKd: −log10 of the molar value.
What was measured:
[1] = test system: polyglutamine disease mouse model; design: method as in PMID 18603372, PMID 23226463, PMID 23504628; details: cited from earlier work
Drosophila = test system: Drosophila; design: method as in PMID 12761040; details: cited from earlier work
L-ARQ46 [2] = target: T1, L-ARQ46 (Homo sapiens, UniProt P10275); assay: ThT aggregation assay of ARQ46 seeded with soluble aggregate fragments; assay type: biochemical; details: 15 µM ARQ46
T1 construct: L-ARQ46; purchased peptides & elephants GmbH (Henningsdorf, Germany); host or cells: chemical synthesis
T1 sequence (P10275 with tags, fused parts or gaps): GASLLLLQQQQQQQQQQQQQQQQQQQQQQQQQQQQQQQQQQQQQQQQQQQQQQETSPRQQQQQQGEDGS
Procedure: (§1) Following the disaggregation protocol that Chen et al. published, the polyglutamine proteins were incubated for three days in 1:1 TFA/Hexafluoroisopropanol (HFIP) or overnight in 100% trifluoroacetic acid (TFA). Afterwards the solvent was evaporated with N2 gas treatment and the polyglutamine protein redissolved in the experiment buffer.
(§2) Thioflavin T (ThT) assays were performed to monitor the time-dependent formation of amyloidogenic aggregates. The assays were performed at 37 °C in TBS pH 7.5 (15 µM ThT) with 300 rpm double orbital shaking. All buffers were sterile filtrated beforehand. Polyglutamine proteins were disaggregated as described before. The peptides were pre-diluted in TBS pH 7.5. The disaggregated polyglutamine protein in buffer was mixed with 15 µM ThT and the pre-diluted peptides in a 96-well half-area flat-bottom microplate (Corning, New York, NY, USA). During the experiment all wells contained 100 µL ThT solution. Sealing the plate with foil (Thermo Fisher Scientific, Waltham, MA, USA) helped to prevent evaporation. The progression of fluorescence intensity was tracked by a microplate reader (BMG Labtech, Ortenberg, Germany).
For seeded experiments, the slope of the curve was considered instead of the lag-time because seeding eliminated the lag-time. The slope was determined by plotting the first values and fitting with a linear fit. The considered period (2 to 3.5 h) was similar for the curves compared with.
The disaggregated ARQ46 was diluted to 300 µM and incubated at 37 °C, 400 rpm. After 24 h large, white aggregates were visible in the tube. The sample was sonicated (Sonopuls, Bandelin electronic GmbH & Co. KG, Berlin, Germany) four times for 15 s with an amplitude of 60%. Between the sonification steps the sample was cooled on ice. Post sonification the sample was turbid. It was centrifuged at 100,000 g for 1 h at 4 °C to remove insoluble aggregates from the solution. The clear supernatant was used for seeding with soluble aggregate fragments.
Figure 5 QF2D-1, QF2D-2 and QF2D-6 inhibit the aggregation of ARQ46 in presence of soluble aggregate fragment seeds; ARQ46 was aggregated, and the solution was subject to spinning at 100,000 g in an ultracentrifuge. The supernatant was preincubated with 15 µM and 7.5 µM of one of the selected compounds in TBS at 37 °C. After 23 h, 15 µM monomeric ARQ46 were added, and the fluorescence intensity was measured every 15 min at λex = 448 nm and λem = 482 nm with agitation at 300 rpm between measurements. P8 served as a control compound that was not selected on polyglutamine, whereas QBP1 is claimed to bind polyglutamine tracts and inhibit polyglutamine-driven aggregation. (A) Fluorescence intensity of P8, QBP1, QF2D-1, QF2D-2 and QF2D-6 in equimolar and sub stoichiometric ratio at 90 h. (B) The data points acquired between 24 h and 26 h- shortly after monomer addition- were fitted with a linear fit. The slope was compared. (C) Measurement example of the described ThT-assay with ARQ46 (black), P8 (light grey), QBP1 (grey) and QF2D-2 (dark grey). The mean fluorescence intensity is shown for each time point. The experiment was performed in two-fold determination.

polyglutamine proteins = details: cited from earlier work
Text: Patients suffering from polyglutamine diseases present with aggregates in their neurons before symptom onset and therefore probably also before treatments start. Thus, a promising drug candidate should inhibit the aggregation in presence of pre-formed aggregates. […] The effects of the compounds were compared with two controls. The first, P8, has been selected on SOD1 and should not bind to polyg ...

L-ARQ46 [3] = target: T1, L-ARQ46; assay: ThT aggregation assay, monomeric ARQ46, unseeded; assay type: biochemical
Procedure: as §1, §2
The lag-time was estimated as follows: the average variation of the curve was determined with the last ten values of the steady state. […]
The progression of fluorescence intensity was measured every 30 min at λex = 410 nm and λem = 482 nm with 30 s agitation at 300 rpm before every measurement. (A) Fluorescence intensity measured at 90 h of the aggregation assay starting with 15 µM monomeric ARQ46 without peptide and with 15 µM QF2D-1, QF2D-2, QF2D-3, QF2D-4, QF2D-5, QF2D-6, QF2D-7, QF2D-8 or QF2D-9. […] The mean fluorescence intensity is shown for each time point. […]
Figure 8 Effect of different QF2D-2 concentrations on the aggregation of ARQ46; ThT assay with L-ARQ46 was performed at 37 °C in TBS pH 7.5. The progression of fluorescence intensity was measured every 30 min at λex = 410 nm and λem = 482 nm with 30 sec agitation at 300 rpm before every measurement. […] The mean fluorescence intensity is shown for each time point. […]

[4] = Spontaneous aggregation of polyglutamine peptides (ThT); assay type: physicochemical; details: no inhibitor, TBS pH 7.5, 37 °C
Procedure: as §1, §2
(§3) Figure 1 Disaggregation of ARQ46; Examination of ARQ46 post disaggregation. […] (B) ThT-Measurement of 15 µM ARQ46, disaggregated with 1:1 TFA/HFIP, in TBS pH 7.5 measured at 37 °C.

[5] = CD secondary structure of polyglutamine peptides; assay type: physicochemical
Procedure: as §1
After disaggregation, polyglutamine proteins were dissolved in TBS pH 7.5 and measured in a quartz crystal cuvette with 1 mm light path (Hellma Analytics, Müllheim, Germany) in a CD spectrometer (J-1100, Jasco Deutschland GmbH, Pfungstadt, Germany) with 4 acquisitions. The High tension voltage (HT) was monitored throughout the experiment. Data for which the HT exceeded 600 V were excluded. Buffer measurements served as references. Analogous, samples containing 50 µM ARQ46 and 50 µM QF2D-1 or QF2D-2 were measured and referenced with the measurement of 50 µM QF2D-1 or QF2D-2 alone. […] The CD spectra of the samples were monitored after 24 h, 48 h and 168 h of aggregation.
as §3
Figure 2 CD-spectrum of D-ARQ23 disaggregated with 100% TFA; Prior to the phage display selection D-ARQ23 was disaggregated with TFA to ensure selection on monomeric target. CD-spectrum was recorded in 10 mM Tris pH 8.

L-ARQ46 [6] = target: T1, L-ARQ46; assay: SPR binding to immobilized L-ARQ46; details: L-ARQ46 immobilized on CM5 chip via amine coupling (1400 RU); steady state affinity fit; TBS pH 7.5, 0.05% Tween, 25 °C; multi-cycle, up to 20 µM; data not shown
Procedure: Binding studies were performed with surface plasmon resonance (SPR) in a Biacore T200 device (Biacore, GE Healthcare, Uppsala, Sweden). The L-ARQ46 was immobilized on a CM5 Chip via amine coupling (1400 RU). The selected D-enantiomeric peptide compound QF2D-2 was dissolved in the running buffer (TBS pH 7.5 with 0.05% Tween) and served as the analyte in multi-cycle experiments, with the highest peptide concentration being 20 µM. Experiments were performed at 25 °C with a flow rate of 45 µL/min. After a contact time of 110 s and a dissociation time of 400 s, the surface was regenerated with low pH (Glycin-HCl, pH 2.2) for 30 s with a flow rate of 30 µL/min. The data were evaluated via affinity fit of the steady state using the biacore evaluation software.

[7] = soluble aggregate seeds, slope 24 to 26 h, peptide concentration not stated (15 or 7.5 µM)

Question: For SNWKWWPGIFD [QBP1], which “Neurological effect in mouse model” value [1] is on record?
Answer: did not yield beneficial neurological effects

Question: What about the “Therapeutic effect in Drosophila” value (Drosophila) of the same compound?
Answer: had a therapeutic effect in Drosophila

Question: And the “Effect in presence of soluble aggregate fragments relative to selected peptides” value (L-ARQ46 [2]; soluble aggregate seeds)?
Answer: considerably smaller than that of the selected peptides

Question: What about the “Inhibition of polyglutamine aggregation” value (polyglutamine proteins) of the same compound?
Answer: claimed to inhibit the aggregation of polyglutamine proteins

Question: What about the “Effect on aggregation of monomeric ARQ46 (repeat with controls)” value (L-ARQ46 [3]; unseeded, ratio not stated, data not shown) of the same compound?
Answer: drastically inhibited the aggregation

Question: With “KKQQQQQQQQQQQQQQQQQQQQQQQ QQQQQQQQQQQQQQQQQQQQQQQKK [L-K2Q46K2, universal polyglutamine peptide]” as the compound, how does the Spontaneous aggregation [4] read?
Answer: spontaneously formed amyloid fibrils after few hours lag time

Question: Which Spontaneous aggregation [4] does the source give for “L-ARQ46: androgen receptor fragment with 46 consecutive glutamine residues” here?
Answer: spontaneously formed amyloid fibrils after few hours lag time

Question: What about the “Beta-sheet structure after incubation” value ([5]; TBS pH 7.5, 37 °C, 400 rpm, 24 h) of the same compound?
Answer: 100%

Question: And the “Secondary structure after disaggregation” value ([5]; freshly disaggregated (100% TFA))?
Answer: a mixture of random coil and alpha-helical structure

Question: What does the source list for `C[C@H](O)[C@@H](NC(=O)[C@@H](CO)NC(=O)[C@@H](Cc1c[nH]c2ccccc12)NC(=O)[C@@H](CCC(N)=O)NC(=O)[C@@H](CO)NC(=O)[C@@H](CCC(N)=O)NC(=O)[C@H](N)CO)C(=O)N1CCC[C@@H]1C(=O)N[C@H](CCC(N)=O)C(=O)NCC(=O)N[C@H](CCCCN)C(=O)N[C@H](Cc1c[nH]c2ccccc12)C(=O)N[C@H](CO)C(=O)N[C@H](Cc1c[nH]cn1)C(=O)N[C@H](Cc1c[nH]c2ccccc12)C(=O)N1CCC[C@@H]1C(=O)N[C@H](CCCNC(=N)N)C(=O)N[C@H](CCCNC(=N)N)C(=O)N[C@H](CCCNC(=N)N)C(=O)O` [QF2D-2]?
Answer: pKd (L-ARQ46 [6]): 4.96; Reduction of slope compared to QBP1 (L-ARQ46 [2]; [7]): 86%; Reduction of slope compared with P8 (L-ARQ46 [2]; [7]): 96%; Fluorescence intensity of the steady state, % of that measured for ARQ46 (L-ARQ46 [3]; at 90 h, equimolar, 15 µM ARQ46 and 15 µM peptide, TBS pH 7.5, 37 °C, λex 410 nm, λem 482 nm, three-fold determination): approx. 70%

Question: Which “Slope of ThT curve after monomer addition (24 to 26 h), in words” value (L-ARQ46 [2]; 15 or 7.5 µM peptide preincubated 23 h with soluble seeds, TBS, 37 °C, two-fold determination) does the source give for YDTPKHKDKTWPMM [P8] here?
Answer: the steepest

Question: What about the “Lag-phase in presence of soluble aggregates” value (L-ARQ46 [2]; soluble aggregate fragment seeds, TBS, 37 °C, two-fold determination) of the same compound?
Answer: no lag-phase observable

Question: And the “Effect on aggregation of monomeric ARQ46, equimolar (repeat with controls)” value (L-ARQ46 [3]; unseeded, equimolar, data not shown)?
Answer: slight inhibiting effect
